From patent US20090163578A1, “NOVEL MODIFICATION OF IMMUNOMODULATORY PROTEIN” (UNIVERSITY OF MEDICINE AND DENTISTRY OF NEW JERSEY, priority 2004, published 2009)

Target: T1, TRPM7/ChaK1 kinase domain (purified recombinant ChaK1-cat) (Mus musculus, UniProt Q923J1)
T1 construct: Expression and purification of recombinant ChaK1 kinase domain was performed as described; made in house; host or cells: bacteria
T1 sequence (Q923J1 1592-1822 limits assumed): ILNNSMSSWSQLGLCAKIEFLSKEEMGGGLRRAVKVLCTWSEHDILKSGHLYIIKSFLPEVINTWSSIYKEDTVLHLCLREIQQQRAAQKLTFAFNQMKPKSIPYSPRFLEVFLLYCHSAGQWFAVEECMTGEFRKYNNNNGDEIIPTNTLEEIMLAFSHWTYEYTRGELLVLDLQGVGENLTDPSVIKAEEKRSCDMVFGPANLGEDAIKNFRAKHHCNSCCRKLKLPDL
Test: ChaK1-cat kinase activity: phosphorylation of myelin basic protein with [γ-33P]ATP, SDS-PAGE and autoradiography
Assay type: biochemical
Procedure: The reaction was performed using purified recombinant ChaK1-cat and myelin basic protein. The samples were analyzed by SDS-PAGE and autoradiography; and
The bands corresponding to phosphorylated myelin basic protein (on the autoradiogram shown in B) were quantified using the Kodak 1D imaging program.
Protein samples were incubated in phosphorylation mixture consisting of 50 mM HEPES-KOH (pH 7.4), 10 mM MgCl2, 4 mM MnCl2, 0.5 mM CaCl2 (unless stated otherwise), 100 μM ATP, and 2 μCi of [γ-^33P]ATP (specific activity of 3000 Ci/mmol) with 0.1 μg of purified recombinant ChaK1. In assays involving annexin 0.5 μg of annexin was used. The reactions were run at 30° C. for 5 min and were terminated by incubation in an ice/water bath and addition of Laemmli sample buffer. Samples were boiled for 5 min and analyzed by SDS-PAGE and autoradiography.
We analyzed the sensitivity of ChaK1 to some known inhibitors of conventional protein kinases.

| Compound | IC50 [µM] | effect on the kinase activity of ChaK1 (concentrations up to 0.1 mM (FIG. 6B)) | inhibitory effect on ChaK1 (staurosporine even at the concentration of 100 μM (FIG. 6B)) |
| --- | --- | --- | --- |
| CC(=O)c1c(O)c(C)c(O)c(Cc2c(O)c3c(c(C(=O)/C=C/c4ccccc4)c2O)OC(C)(C)C=C3)c1O [rottlerin] | ~35 |  |  |
| CN[C@@H]1C[C@H]2O[C@@](C)([C@@H]1OC)n1c3ccccc3c3c4c(c5c6ccccc6n2c5c31)C(=O)NC4 [staurosporine] |  | does not have any effect | did not produce any inhibitory effect |
